The subject of one experiment is Pfeiffer. In words: Methylated lysine of histone-H3 (H3K27Me3) detection by ELISA, Pfeiffer cells. It is filed as cell-based, human. The conditions noted are these: Homo sapiens, 168 h, 7 days treatment, H3K27Me3 normalized to total histone-3, read-out: IC50 of cell methylation, Pfeiffer. The procedure, abridged:
(§1)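 Cells were treated 7 days with compound (4-fold dilutions, 20 uM-0.009 nM), then lysed hypotonically with NaCl adjusted to ~100 mM. Lysate-coated plates were probed by ELISA for H3K27Me3 and total H3 (TMB, A450). Methylation signal was normalised to total H3 before curve fitting.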
(In an ELISA, binding on a coated surface is turned into a signal by an enzyme label.)

For a further experiment, the system named is Pfeiffer cells. The experiment in a line: Experiment on Pfeiffer cell proliferation (CellTiter-Glo). Format: cell-based, human. The settings on record: Homo sapiens. Background: Cellular ATP, detected with luciferase, serves as a proxy for viable cell number.
In the next experiment the test system is WSU-DLCL2. In words: Methylated lysine of histone-H3 (H3K27Me3) detection by ELISA, WSU-DLCL2 cells. It is filed as cell-based. The settings on record: Homo sapiens, WSUDLCL2, 168 h; WSU-DLCL2, 7 days treatment, H3K27Me3 normalized to total histone-3; read-out: IC50 of cell methylation, WSU-DLCL2. A digest of the protocol: as §1

Structures are written as SMILES. Read-outs that look alike come from different tables or passages of the source.

Take `CCN(c1cc(O[C@H]2C[C@H](N3C[C@@H](C)O[C@@H](C)C3)C2)cc(C(=O)NCc2c(C)cc(C)[nH]c2=O)c1C)C1CCC(F)(F)CC1` [Example 45, 3-((4,4-difluorocyclohexyl)(ethyl)amino)-N-((4,6-dimethyl-2-oxo-1,2-dihydropyridin-3-yl)methyl)-5-(trans-3-(cis-2,6-dimethylmorpholinyl)cyclobutoxy)-2-methylbenzamide]: the IC50 in the experiment with Pfeiffer is 50 to 500 nM; in the experiment with Pfeiffer cells (168 h, Day 7, read-out: IC50 Pfeiffer proliferation Day 7), 69 nM; in the experiment with Pfeiffer cells (336 h, Day 14, read-out: IC50 Pfeiffer proliferation Day 14), 9.7 nM; in the experiment on WSU-DLCL2, 50 to 500 nM.

The record behind these values is patent US12390472B2 (SUZHOU SINOVENT PHARMACEUTICALS CO., LTD., priority 2018, dated 2025).
